Experimental data: ChEMBL document CHEMBL1667792, “DNA-dependent protein kinase (DNA-PK) inhibitors: structure-activity relationships for O-alkoxyphenylchromen-4-one probes of the ATP-binding domain” (Bioorg Med Chem Lett, 2011)

What was measured:
[1] = biological target: DNA-dependent protein kinase catalytic subunit (Homo sapiens, UniProt P78527)
[2] = biological target: Phosphatidylinositol 4,5-bisphosphate 3-kinase catalytic subunit alpha isoform (Homo sapiens, UniProt P42336); assay: Inhibition of PI3Kalpha after 80 mins
Chain of Phosphatidylinositol 4,5-bisphosphate 3-kinase catalytic subunit alpha isoform (P42336 whole entry, canonical isoform): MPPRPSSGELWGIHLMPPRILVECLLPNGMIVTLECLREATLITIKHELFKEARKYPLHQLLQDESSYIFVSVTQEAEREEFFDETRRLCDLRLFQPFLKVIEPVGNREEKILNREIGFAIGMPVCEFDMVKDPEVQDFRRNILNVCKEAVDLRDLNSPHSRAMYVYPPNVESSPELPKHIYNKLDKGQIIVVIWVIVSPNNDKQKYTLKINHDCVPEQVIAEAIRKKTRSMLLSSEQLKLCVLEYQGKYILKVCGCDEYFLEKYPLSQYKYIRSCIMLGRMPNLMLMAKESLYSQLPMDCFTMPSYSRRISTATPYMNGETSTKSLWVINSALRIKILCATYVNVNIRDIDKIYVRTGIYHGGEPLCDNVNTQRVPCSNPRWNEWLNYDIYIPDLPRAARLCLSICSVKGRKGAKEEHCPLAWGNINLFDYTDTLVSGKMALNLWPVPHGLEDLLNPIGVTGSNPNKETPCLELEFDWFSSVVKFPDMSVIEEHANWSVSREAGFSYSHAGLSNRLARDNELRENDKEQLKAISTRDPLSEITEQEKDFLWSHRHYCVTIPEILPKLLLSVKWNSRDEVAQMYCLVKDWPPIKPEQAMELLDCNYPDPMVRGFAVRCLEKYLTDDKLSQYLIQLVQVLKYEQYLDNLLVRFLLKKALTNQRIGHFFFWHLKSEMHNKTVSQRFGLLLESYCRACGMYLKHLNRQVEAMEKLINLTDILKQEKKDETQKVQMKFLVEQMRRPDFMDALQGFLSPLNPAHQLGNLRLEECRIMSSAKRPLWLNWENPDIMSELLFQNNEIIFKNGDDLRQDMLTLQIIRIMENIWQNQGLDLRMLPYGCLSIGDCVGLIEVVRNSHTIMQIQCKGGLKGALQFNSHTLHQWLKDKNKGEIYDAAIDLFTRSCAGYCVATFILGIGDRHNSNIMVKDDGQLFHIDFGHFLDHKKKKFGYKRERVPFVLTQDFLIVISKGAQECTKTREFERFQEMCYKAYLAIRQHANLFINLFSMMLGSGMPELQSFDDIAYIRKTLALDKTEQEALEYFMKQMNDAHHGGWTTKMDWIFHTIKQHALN

[3] = tested on: HeLa; assay: Potentiation of ionising radiation-induced DNA damaging activity in human HeLa cells assessed as dose modification ratio at 0.1 uM treated 1 hr before ionising radiation challenge followed by washout measured after 6 to 8 days by Giemsa staining; format: functional
[4] = tested on: HeLa; assay: Potentiation of ionising radiation-induced DNA damaging activity in human HeLa cells assessed as dose modification ratio at 0.5 uM treated 1 hr before ionising radiation challenge followed by washout measured after 6 to 8 days by Giemsa staining; format: functional

Chain of DNA-dependent protein kinase catalytic subunit (P78527 whole entry, canonical isoform): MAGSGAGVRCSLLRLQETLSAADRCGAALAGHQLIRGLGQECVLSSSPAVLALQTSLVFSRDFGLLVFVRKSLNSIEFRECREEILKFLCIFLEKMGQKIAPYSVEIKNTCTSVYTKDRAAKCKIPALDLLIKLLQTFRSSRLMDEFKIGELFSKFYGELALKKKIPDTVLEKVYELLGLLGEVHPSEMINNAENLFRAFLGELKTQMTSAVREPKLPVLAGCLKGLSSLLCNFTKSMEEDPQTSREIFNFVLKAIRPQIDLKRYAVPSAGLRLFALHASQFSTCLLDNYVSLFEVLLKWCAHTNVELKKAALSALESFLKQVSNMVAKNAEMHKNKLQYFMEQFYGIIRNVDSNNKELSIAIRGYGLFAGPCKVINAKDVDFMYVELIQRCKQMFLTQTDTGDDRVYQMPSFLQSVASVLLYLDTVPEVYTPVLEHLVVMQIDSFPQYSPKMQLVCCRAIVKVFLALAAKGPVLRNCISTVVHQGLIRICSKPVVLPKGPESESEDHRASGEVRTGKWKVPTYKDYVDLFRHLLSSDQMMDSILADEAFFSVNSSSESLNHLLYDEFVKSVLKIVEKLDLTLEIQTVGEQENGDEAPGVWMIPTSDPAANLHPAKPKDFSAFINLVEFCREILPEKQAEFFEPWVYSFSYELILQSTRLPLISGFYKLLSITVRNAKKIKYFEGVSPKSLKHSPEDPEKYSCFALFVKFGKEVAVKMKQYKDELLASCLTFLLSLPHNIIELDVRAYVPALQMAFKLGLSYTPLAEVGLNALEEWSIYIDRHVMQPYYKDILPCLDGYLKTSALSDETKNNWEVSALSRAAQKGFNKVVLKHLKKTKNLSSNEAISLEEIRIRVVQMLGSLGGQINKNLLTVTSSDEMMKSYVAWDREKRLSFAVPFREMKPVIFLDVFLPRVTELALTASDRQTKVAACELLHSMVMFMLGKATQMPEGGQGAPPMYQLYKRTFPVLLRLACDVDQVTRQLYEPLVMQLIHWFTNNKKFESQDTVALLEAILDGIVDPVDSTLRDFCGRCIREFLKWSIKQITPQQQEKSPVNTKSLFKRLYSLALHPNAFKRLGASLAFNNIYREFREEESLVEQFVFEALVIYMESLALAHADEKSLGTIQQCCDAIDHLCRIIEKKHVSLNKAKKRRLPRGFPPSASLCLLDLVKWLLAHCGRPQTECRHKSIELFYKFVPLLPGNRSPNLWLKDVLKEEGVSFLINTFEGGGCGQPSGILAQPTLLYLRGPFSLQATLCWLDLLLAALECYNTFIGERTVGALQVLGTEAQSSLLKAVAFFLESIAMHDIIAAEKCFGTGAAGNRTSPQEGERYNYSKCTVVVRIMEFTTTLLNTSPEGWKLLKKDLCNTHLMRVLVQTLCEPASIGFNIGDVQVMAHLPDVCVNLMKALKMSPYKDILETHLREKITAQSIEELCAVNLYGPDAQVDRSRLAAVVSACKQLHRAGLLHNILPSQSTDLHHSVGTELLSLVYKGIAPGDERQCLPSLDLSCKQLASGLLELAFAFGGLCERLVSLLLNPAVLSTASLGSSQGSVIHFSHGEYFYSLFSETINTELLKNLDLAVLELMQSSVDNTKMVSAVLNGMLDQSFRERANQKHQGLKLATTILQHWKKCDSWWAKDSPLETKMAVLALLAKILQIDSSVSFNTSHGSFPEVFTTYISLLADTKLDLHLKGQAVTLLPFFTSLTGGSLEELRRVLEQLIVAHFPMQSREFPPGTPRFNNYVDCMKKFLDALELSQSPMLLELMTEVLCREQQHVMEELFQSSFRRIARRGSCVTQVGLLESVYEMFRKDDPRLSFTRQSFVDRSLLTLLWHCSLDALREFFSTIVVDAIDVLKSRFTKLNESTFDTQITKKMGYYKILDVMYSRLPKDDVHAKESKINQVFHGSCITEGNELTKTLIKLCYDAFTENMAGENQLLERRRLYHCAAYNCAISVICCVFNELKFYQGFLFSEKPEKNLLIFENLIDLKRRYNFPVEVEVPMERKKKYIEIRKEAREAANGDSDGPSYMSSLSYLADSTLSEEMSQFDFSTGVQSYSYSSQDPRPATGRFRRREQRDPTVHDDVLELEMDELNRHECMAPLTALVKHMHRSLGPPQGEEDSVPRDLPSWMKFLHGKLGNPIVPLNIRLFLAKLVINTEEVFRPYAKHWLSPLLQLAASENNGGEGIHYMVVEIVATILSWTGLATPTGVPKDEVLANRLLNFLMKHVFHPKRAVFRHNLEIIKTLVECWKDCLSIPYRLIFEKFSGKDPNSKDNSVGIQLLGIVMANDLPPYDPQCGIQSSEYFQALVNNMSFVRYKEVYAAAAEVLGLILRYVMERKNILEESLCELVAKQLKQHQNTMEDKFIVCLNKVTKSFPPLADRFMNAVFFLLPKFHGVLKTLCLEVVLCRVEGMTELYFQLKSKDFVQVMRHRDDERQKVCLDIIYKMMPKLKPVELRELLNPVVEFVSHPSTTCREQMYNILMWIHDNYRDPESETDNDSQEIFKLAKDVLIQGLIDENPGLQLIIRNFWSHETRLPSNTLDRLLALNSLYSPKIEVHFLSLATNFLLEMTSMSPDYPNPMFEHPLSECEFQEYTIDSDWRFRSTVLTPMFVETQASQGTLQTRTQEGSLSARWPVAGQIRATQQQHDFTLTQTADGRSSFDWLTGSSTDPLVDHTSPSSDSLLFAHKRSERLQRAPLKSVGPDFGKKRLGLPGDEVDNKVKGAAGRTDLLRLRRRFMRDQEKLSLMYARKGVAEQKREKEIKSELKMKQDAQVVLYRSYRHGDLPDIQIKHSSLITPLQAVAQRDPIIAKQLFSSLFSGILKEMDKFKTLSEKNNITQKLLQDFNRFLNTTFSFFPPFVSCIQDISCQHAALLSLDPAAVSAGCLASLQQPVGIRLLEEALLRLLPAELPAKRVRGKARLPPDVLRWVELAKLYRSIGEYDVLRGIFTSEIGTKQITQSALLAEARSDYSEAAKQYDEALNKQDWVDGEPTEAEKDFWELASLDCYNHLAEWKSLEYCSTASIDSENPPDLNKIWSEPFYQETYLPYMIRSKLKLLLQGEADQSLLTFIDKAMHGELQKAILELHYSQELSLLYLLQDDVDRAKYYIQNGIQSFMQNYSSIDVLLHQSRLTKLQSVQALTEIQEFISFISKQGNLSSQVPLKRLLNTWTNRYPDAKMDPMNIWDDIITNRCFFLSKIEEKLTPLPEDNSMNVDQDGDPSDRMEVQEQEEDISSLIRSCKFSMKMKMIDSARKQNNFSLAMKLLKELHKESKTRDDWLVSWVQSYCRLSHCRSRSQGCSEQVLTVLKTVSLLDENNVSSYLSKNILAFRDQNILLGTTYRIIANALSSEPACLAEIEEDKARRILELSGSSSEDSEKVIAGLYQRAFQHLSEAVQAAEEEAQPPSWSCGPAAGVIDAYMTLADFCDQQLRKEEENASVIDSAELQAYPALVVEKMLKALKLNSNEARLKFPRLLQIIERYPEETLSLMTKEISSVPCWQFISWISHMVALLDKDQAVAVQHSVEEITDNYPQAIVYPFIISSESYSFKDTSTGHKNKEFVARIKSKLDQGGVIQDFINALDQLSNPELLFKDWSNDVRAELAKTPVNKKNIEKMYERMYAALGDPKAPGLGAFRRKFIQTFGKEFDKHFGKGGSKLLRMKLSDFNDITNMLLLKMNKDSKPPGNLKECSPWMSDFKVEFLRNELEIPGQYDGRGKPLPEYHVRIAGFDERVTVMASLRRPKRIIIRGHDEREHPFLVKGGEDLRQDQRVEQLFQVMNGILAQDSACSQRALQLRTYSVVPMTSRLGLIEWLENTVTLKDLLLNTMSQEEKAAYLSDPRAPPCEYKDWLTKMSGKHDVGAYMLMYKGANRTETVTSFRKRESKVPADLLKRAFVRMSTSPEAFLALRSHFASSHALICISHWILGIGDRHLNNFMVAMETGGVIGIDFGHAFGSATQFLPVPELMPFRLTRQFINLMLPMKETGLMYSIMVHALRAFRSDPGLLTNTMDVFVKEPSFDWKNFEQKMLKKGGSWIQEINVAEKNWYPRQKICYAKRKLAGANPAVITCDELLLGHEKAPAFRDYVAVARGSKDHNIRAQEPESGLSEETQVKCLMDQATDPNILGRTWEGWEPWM

| IC50 [1] | IC50 [2] | Compound | Ratio [3] | Ratio [4] |
| --- | --- | --- | --- | --- |
| 1300 nM |  | O=c1cc(N2CCOCC2)oc2c(-c3ccccc3)cccc12 [LY-294002] |  |  |
| 28 nM | 130 nM | O=c1cc(N2CCOCC2)oc2c(-c3cccc4c3sc3ccccc34)cccc12 |  |  |
| 1000 nM | 1600 nM | O=C(CN1CCOCC1)Nc1ccc(-c2cccc3c(=O)cc(N4CCOCC4)oc23)cc1OCCO |  |  |
| 280 nM | 470 nM | CCOc1cc(-c2cccc3c(=O)cc(N4CCOCC4)oc23)ccc1NC(=O)CN1CCOCC1 |  |  |
| 3300 nM | 1100 nM | NC(=O)COc1cc(-c2cccc3c(=O)cc(N4CCOCC4)oc23)ccc1NC(=O)CN1CCOCC1 |  |  |
| 170 nM | 150 nM | C=CCOc1cc(-c2cccc3c(=O)cc(N4CCOCC4)oc23)ccc1NC(=O)CN1CCOCC1 |  |  |
| > 10000 nM | 4400 nM | O=C(CN1CCOCC1)Nc1ccc(-c2cccc3c(=O)cc(N4CCOCC4)oc23)cc1OCCN1CCCC1 |  |  |
| 500 nM | 400 nM | O=C(CN1CCOCC1)Nc1ccc(-c2cccc3c(=O)cc(N4CCOCC4)oc23)cc1OCCC1CC1 |  |  |
| 180 nM | 150 nM | CC(C)COc1cc(-c2cccc3c(=O)cc(N4CCOCC4)oc23)ccc1NC(=O)CN1CCOCC1 |  |  |
| 8 nM | 70 nM | O=C(CN1CCOCC1)Nc1ccc(-c2cccc3c(=O)cc(N4CCOCC4)oc23)cc1OCC1CC1 |  |  |
| 160 nM | 290 nM | O=C(CN1CCOCC1)Nc1ccc(-c2cccc3c(=O)cc(N4CCOCC4)oc23)cc1OCC1CCC1 |  |  |
| 12000 nM | 3000 nM | NCCOc1cc(-c2cccc3c(=O)cc(N4CCOCC4)oc23)ccc1NC(=O)CN1CCOCC1 |  |  |
| 14 nM |  | O=C(CN1CCOCC1)Nc1ccc(-c2cccc3c(=O)cc(N4CCOCC4)oc23)cc1-c1ccccc1 | 11 | 8 |
| 80 nM | 430 nM | O=C(CN1CCOCC1)Nc1ccc(-c2cccc3c(=O)cc(N4CCOCC4)oc23)cc1O |  |  |
| 690 nM | 300 nM | CC1(COc2cc(-c3cccc4c(=O)cc(N5CCOCC5)oc34)ccc2NC(=O)CN2CCOCC2)COC1 |  |  |
| 2600 nM | 1500 nM | COCCOc1cc(-c2cccc3c(=O)cc(N4CCOCC4)oc23)ccc1NC(=O)CN1CCOCC1 |  |  |
| 110 nM | 270 nM | CC1(COc2cc(-c3cccc4c(=O)cc(N5CCOCC5)oc34)ccc2NC(=O)CN2CCOCC2)CCC1 |  |  |
| 330 nM | 290 nM | CC(C)Oc1cc(-c2cccc3c(=O)cc(N4CCOCC4)oc23)ccc1NC(=O)CN1CCOCC1 |  |  |
| 290 nM | 350 nM | COc1cc(-c2cccc3c(=O)cc(N4CCOCC4)oc23)ccc1NC(=O)CN1CCOCC1 |  |  |
